Counter-ions that a name gives are not always drawn.
What was measured:
human alpha-2A receptor = target: T1, human alpha-2A receptor (Homo sapiens, UniProt P08913); test: Binding to the adrenergic alpha-2A receptor, [3H]RX 821002, C6 cell membranes; conditions: membranes of C6 cells expressing human alpha-2A; 2 nM [3H]RX 821002; 30 minutes at 25° C.; read-out: Affinity (pKi) Alpha-2A (converted)
T1 construct: expressed in transfected cells; host or cells: C6 cells (permanent expression), membranes
T1 sequence (P08913 1-465): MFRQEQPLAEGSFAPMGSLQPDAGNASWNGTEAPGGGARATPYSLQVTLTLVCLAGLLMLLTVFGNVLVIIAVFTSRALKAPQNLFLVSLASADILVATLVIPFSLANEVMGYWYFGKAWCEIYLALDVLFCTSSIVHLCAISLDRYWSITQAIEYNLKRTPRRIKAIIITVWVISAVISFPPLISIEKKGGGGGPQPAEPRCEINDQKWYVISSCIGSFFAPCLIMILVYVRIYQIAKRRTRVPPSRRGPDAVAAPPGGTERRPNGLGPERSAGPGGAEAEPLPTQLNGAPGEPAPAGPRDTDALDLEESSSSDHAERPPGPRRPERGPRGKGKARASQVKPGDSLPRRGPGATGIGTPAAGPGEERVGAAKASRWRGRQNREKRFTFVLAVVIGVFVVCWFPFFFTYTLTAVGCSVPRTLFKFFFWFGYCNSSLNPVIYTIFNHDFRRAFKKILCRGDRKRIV
Experimental: (§1) Membranes of C6 cells permanently expressing either the human alpha-2A or alpha-2B receptor are prepared in Tris-HCl (pH=7.6). The binding tests are performed with 2 nM [^3H]RX 821002. The incubation medium is composed of 0.4 ml of cell membranes (10 μg of proteins), 0.05 ml of radioligand and 0.05 ml of test product or of phentolamine (10 μM) to determine the nonspecific binding. The reaction is quenched after incubation for 30 minutes at 25° C. by adding 3 ml of cold 50 mM Tris-HCl (pH=7.6), followed by filtration through Whatman GF/B filters using a Brandel. The Ki values are calculated according to the equation Ki=IC50/(1+C/Kd) in which C is the concentration and Kd the dissociation constant, pKi=−logKi. Under these conditions, it is seen that the compounds of the invention have high affinity for the receptors of the human adrenergic alpha-2A subtype, whereas they have little or no affinity for the receptors of the human adrenergic alpha-2B subtype (cf. above table). This unexpected receptor selectivity of the compounds of the invention, compared with the compounds of the prior art, may have a favorable impact on their tolerance.

human alpha-2B receptor = target: T2, human alpha-2B receptor (Homo sapiens, UniProt P18089); test: Binding to the adrenergic alpha-2B receptor, [3H]RX 821002, C6 cell membranes; conditions: membranes of C6 cells expressing human alpha-2B; 2 nM [3H]RX 821002; 30 minutes at 25° C.; read-out: Affinity (pKi) Alpha-2B (converted)
T2 construct: expressed in transfected cells; host or cells: C6 cells (permanent expression), membranes
T2 sequence (P18089 1-450): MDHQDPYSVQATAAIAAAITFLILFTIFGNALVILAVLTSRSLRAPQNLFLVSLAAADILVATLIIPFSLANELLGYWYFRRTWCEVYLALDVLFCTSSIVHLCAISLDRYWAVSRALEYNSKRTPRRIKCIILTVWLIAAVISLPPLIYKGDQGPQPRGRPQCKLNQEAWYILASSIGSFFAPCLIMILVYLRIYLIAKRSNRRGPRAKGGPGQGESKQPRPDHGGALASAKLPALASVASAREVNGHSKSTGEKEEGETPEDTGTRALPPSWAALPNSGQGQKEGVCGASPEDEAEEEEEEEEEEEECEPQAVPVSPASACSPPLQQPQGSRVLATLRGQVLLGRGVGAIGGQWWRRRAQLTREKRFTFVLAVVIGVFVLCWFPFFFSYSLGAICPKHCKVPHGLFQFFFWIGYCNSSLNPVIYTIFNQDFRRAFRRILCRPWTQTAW
Experimental: as §1

[1] = target: T3, human alpha-2A adrenergic receptors (Homo sapiens, UniProt P08913); test: Measurement of the activation of the adrenergic alpha-2 receptors (GTPγS response on membrane preparations); format: biochemical; conditions: GTPγS response versus maximum stimulation by (−)-adrenalin, negative = inverse agonist, read-out: Intrinsic activity % stimulated
T3 construct: host or cells: membrane preparations
T3 sequence (P08913 1-465): T1 sequence (P08913 1-465)
Experimental: Measurement of the Activation of the Adrenergic Alpha-2 Receptors:
The responses as GTPγS are performed on membrane preparations in 20 mM HEPES (pH=7.4) with 30 μM of GDP, 100 mM of NaCl, 3 mM of MgCl2 and 0.2 mM of ascorbic acid. The maximum stimulation of the GTPγS is determined in the presence of […] of (−)-adrenalin and calculated versus the basal GTPγS response. The results are expressed versus either adrenalin or RX 81105-9. Under these conditions, the compounds of the invention are distinguished from most of the compounds of the prior art of the 4,5-dihydro-1H-imidazole and/or 1H-imidazole type in that they behave rather as inverse agonists on human alpha-2A adrenergic receptors (cf. above table).

[2] = test system: Scopolamine-induced memory deficiency; test: Test of scopolamine-induced memory deficiency (passive avoidance); format: in vivo; conditions: rats
Source text: Test of Scopolamine-Induced Memory Deficiency:
Scopolamine has amnesiant properties in man and animals. Thus, its administration to a healthy person causes certain symptoms similar to what is observed in Alzheimer's disease. Scopolamine-induced memory deficiency is thus used as an experimental pharmacological model of this pathology. Scopolamine reduces the capacity for acquisition, memorization and recall in a test of passive avoidance in rats. […] The administration of scopolamine suppresses this reticence, and the test compounds counter the effect of scopolamine. The experimental protocol used is described in Psychopharmacol. 1992, 106, 26-30.

SMILES | melting point | Ki (human alpha-2A receptor) | Ki (human alpha-2B receptor) | Emax [1] | also measured
CO[C@H]1c2ccccc2C2C[C@]21C1=NCCN1 (mixture of isomers) (as salt: fumarate) [XV-1, 2-(6-Methoxy-1a,6-dihydro-1H-cyclopropa[a]-inden-6a-yl)-4,5-dihydro-1H-imidazole] | 173 to 175 °C | – | – | – | –
C[C@@H]1[C@H]2c3ccccc3C[C@@]12C1=NCCN1 (racemic) (as salt: fumarate) [XVII-2, 2-(1-exo-Methyl-1a,6-dihydro-1H-cyclopropa-[a]inden-6a-yl)-4,5-dihydro-1H-imidazole] | 133 to 135 °C | – | – | – | –
CO[C@H]1c2ccccc2C2C[C@]21C1=NCCN1 (mixture of isomers) [XV-1, 2-(6-Methoxy-1a,6-dihydro-1H-cyclopropa[a]-inden-6a-yl)-4,5-dihydro-1H-imidazole] | – | 12.6 nM | 316 nM | -2% | Scopolamine-induced memory deficiency amplitude of the effect % ([2]; dose 2.5 mg/kg i.p.): +168 (2.5) %
C[C@@H]1[C@H]2c3ccccc3C[C@@]12C1=NCCN1 (racemic) [XVII-2, 2-(1-exo-Methyl-1a,6-dihydro-1H-cyclopropa-[a]inden-6a-yl)-4,5-dihydro-1H-imidazole] | – | 3.16 nM | 20 nM | -64% | Scopolamine-induced memory deficiency amplitude of the effect % ([2]; dose 0.63 mg/kg i.p.): +181 (0.63) %
COC1c2ccccc2C2CC21C1=NCCN1 (single isomer, unassigned; (+)) (as salt: fumarate) [(+) -XV-1, (+)-2-(6-Methoxy-1a,6-dihydro-1H-cyclopropa[a]inden-6a-yl)-4,5-dihydro-1H-imidazole] | 170 to 172 °C | – | – | – | –
COC1c2ccccc2C2CC21C1=NCCN1 (single isomer, unassigned; (+)) [(+) -XV-1, (+)-2-(6-Methoxy-1a,6-dihydro-1H-cyclopropa[a]inden-6a-yl)-4,5-dihydro-1H-imidazole] | – | 3.98 nM | > 10000 nM | -63% | –
c1ccc2c(c1)CC1(C3=NCCN3)CC21 (single isomer, unassigned; (-)) (as salt: hydrochloride) [(−)-XVII-1, (−)-2-(1a,6-Dihydro-1H-cyclopropa[a]inden-6a-yl)-4,5-dihydro-1H-imidazole] | 245 to 247 °C | – | – | – | –
CNCC(O)c1ccc(O)c(O)c1 (single isomer, unassigned; (-)) [(−)-adrenalin, reference compound] | – | – | – | 100% | –
COc1cccc2c1C1C[C@@]1(C1=NCCN1)[C@H]2OC (stereo in doubt) (as salt: fumarate) [XV-1a, 2-(2,6-Dimethoxy-1a,6-dihydro-1H-cyclopropa[a]inden-6a-yl)-4,5-dihydro-1H-imidazole] | 177 to 179 °C | – | – | – | –
COc1cc2c(cc1OC)C(=O)C(CC1CCN(Cc3ccccc3)CC1)C2 (stereo not drawn) [donepezil, reference compound] | – | – | – | – | Scopolamine-induced memory deficiency amplitude of the effect % ([2]; dose 0.16 mg/kg i.p.): +67 (0.16) %

From patent US20050107455A1, “Novel tricycloimidazoline derivatives method for production and use thereof as medicaments” (priority 2002, published 2005)
